Patent US20050267050A1, “Compositions and methods for treating mdma-induced toxicity” (YEDA RESEARCH AND DEVELOPMENT CO. LTD., priority 2002, published 2005)

Test system: MDMA acute toxicity in mice
Assay: Protective activity against MDMA acute toxicity (survival) in mice
Type: in vivo, C57B1/6J mice
Conditions: inhibitor i.p. 5-120 minutes before toxic dose of MDMA; FIG. 6A
Procedure: Next step was to determine whether compounds blocking the enhanced expression of GABA transporters may restraint MDMA-induced hyperthermia. We ran trials to determine whether the mortality levels causes by MDMA administration would be affected by treatment with suspected GABA transporter inhibiting compounds Tiagabine, nipecotic acid derivative NO-711, and Vigabatrin which have been used hitherto as anti-epileptics.
Mice were administered dose(s) of mg/ml of MDMA according to the following schedule and were […] injected with a dose of the GABA transporter blocker. In the first set of experiments the effective toxic dose of MDMA was determined. C57B1/6J mice, 2-3 months old, 6 mice in each group, were tested with different concentration of the drug, prepared in saline and injected intraperitoneally. Saline solution was used as a control. The lowest concentration of the drug causing 100% death within 60 minutes was used in the following experiments. Mice (8 in each group) were injected (i.p.) with different concentrations of the tested GABA transporter inhibitor, or other compound, and 5-120 minutes later were injected with the toxic dose of MDMA. […]

Compound: Cl.O=C(O)C1=CCCN(CCON=C(c2ccccc2)c2ccccc2)C1 [NO-711, 1-(2(((diphenylmethylene)imino)oxy)ethyl)-1,2,5,6-tetrahydro-3-pyridinecarboxylic acid hydrochloride]
- Survival of MDMA-treated mice: significantly improved the survival

Compound: Cc1ccsc1C(=CCCN1CCC[C@@H](C(=O)O)C1)c1sccc1C [Tiagabine, (R)-1-[4,4-Bis(3-methyl-2-thienyl)-3-butenyl]-3-piperidinecarboxylic acid]
- Survival of MDMA-treated mice: significantly improved the survival
